The NIST ThermoML archive (doi:10.1021/je800375t)

Conditions: Liquid

COC [dimethyl ether]
Conditions | vapor or sublimation pressure [kPa]
213.08 K | 16.46
218.11 K | 22.24
223.15 K | 29.61
228.06 K | 38.64
233.09 K | 49.96
238.11 K | 63.84
243.07 K | 80.36
248.12 K | 100.43
253.12 K | 124.09
258.13 K | 152.4
263.13 K | 184.96
268.13 K | 222.7
273.17 K | 266.5
278.17 K | 316.12
283.16 K | 372.9
288.13 K | 436.69
293.17 K | 509.01
298.08 K | 588.17
298.78 K | 600.51
303.15 K | 679.68
303.78 K | 691.56
308.13 K | 778.92
313.17 K | 889.98
318.16 K | 1011.5
323.17 K | 1144.7
328.16 K | 1290.2
333.17 K | 1449.2
338.17 K | 1621.5
343.16 K | 1809.1
348.16 K | 2012.4
353.16 K | 2232.3
358.16 K | 2468.9
363.16 K | 2723.3
368.14 K | 2996.4
373.14 K | 3291.2
378.15 K | 3608.6
383.15 K | 3948.6
388.16 K | 4313.9
393.16 K | 4706.2
